Experimental findings from US20180370940A1, “SALICYLIC ACID DERIVATIVE, METHOD FOR PREPARING SAME, AND COSMETIC COMPOSITION FOR WHITENING COMPRISING SAME” (AMOREPACIFIC CORPORATION, priority 2015, published 2018) are described below.

The subject of this test is Mushroom-derived tyrosinase. Description: Inhibitory effect on tyrosinase activity (mushroom tyrosinase, L-tyrosine substrate, absorbance at 490 nm). Type of test: biochemical. Conditions: for inhibitory effect on tyrosinase activity (in words): at a concentration of 200 μM or less; for IC50: mushroom tyrosinase, 1.5 mM L-tyrosine, pH 6.5, 37° C. for 20 minutes, absorbance at 490 nm, read-out: Inhibition of tyrosinase activity (IC50). As to the method:
In order to investigate the tyrosinase activity inhibitory effect of the salicylic acid derivatives prepared in Examples 1 to 6, the following experiment was conducted. Mushroom-derived tyrosinase and tyrosine were purchased from Sigma Chemical. Each sample was treated with 150 microliters of 0.1 M phosphate buffer (pH 6.5), 8 microliters of mushroom tyrosinase (2,100 units/ml, 0.05 M phosphate buffer, pH 6.5) and 36 microliters of 1.5 mM L-tyrosine by concentration. After the enzymatic reaction was carried out at 37° C. for 20 minutes, the activity of tyrosinase was measured by measuring the absorbance at 490 nm using a microplate reader (Bio-Rad 3550, Richmond, Calif., U.S.A.). The inhibitory effect of tyrosinase of the salicylic acid derivatives prepared in Examples 1 to 6 was determined based on the following Equation (1). Tyrosinase inhibition ratio (%)=100−((Reaction absorbance of each sample/reaction absorbance of the control group)×100) [Equation 1] The concentration of each test substance which decreased the activity of tyrosinase by 50% was determined by the above Equation, and the obtained results are shown in Table 1.

Consider `Cc1cccc(C(=O)O)c1O` [3-Methylsalicylic acid, reference compound], for which the “inhibitory effect on tyrosinase activity (in words)” value was “do not exhibit the inhibitory effect” and the IC50 is > 200 µM. On to `COc1ccc(C(=O)OCc2cc(=O)c(O)co2)c(O)c1` [Compound of Example 5, 2-hydroxy-4-methoxy-benzoic acid 5-hydroxy-4-oxo-4H-pyran-2-ylmethyl ester], for which the IC50 was 4.2 µM. Same read-out and setting: to `Cc1ccc(O)c(C(=O)OCc2cc(=O)c(O)co2)c1` [Compound of Example 3, 2-hydroxy-5-methyl-benzoic acid 5-hydroxy-4-oxo-4H-pyran-2-ylmethyl ester] belongs 5.3 µM. As to `O=c1cc(CO)occ1O` [Kojic acid, reference compound], the concentration for half-maximal inhibition (IC50) is 41 µM. Consider `COc1cccc(C(=O)O)c1O` [3-Methoxysalicylic acid, reference compound], for which the “inhibitory effect on tyrosinase activity (in words)” value is “do not exhibit the inhibitory effect” and the IC50 is > 200 µM.

Regarding `Cc1ccc(C(=O)OCc2cc(=O)c(O)co2)c(O)c1` [Compound of Example 2, 2-hydroxy-4-methyl-benzoic acid 5-hydroxy-4-oxo-4H-pyran-2-ylmethyl ester], the IC50 was found to be 1.51 µM. For the compound `COc1cccc(C(=O)OCc2cc(=O)c(O)co2)c1O` [Compound of Example 4, 2-hydroxy-3-methoxy-benzoic acid 5-hydroxy-4-oxo-4H-pyran-2-ylmethyl ester], the IC50 is 4.21 µM.

For `Cc1cccc(C(=O)OCc2cc(=O)c(O)co2)c1O` [Compound of Example 1, 2-hydroxy-3-methyl-benzoic acid 5-hydroxy-4-oxo-4H-pyran-2-ylmethyl ester], the IC50 was 3.2 µM. On the same count and under the same terms, then `COc1ccc(O)c(C(=O)OCc2cc(=O)c(O)co2)c1` [Compound of Example 6, 2-Hydroxy-5-methoxy-benzoic acid 5-hydroxy-4-oxo-4H-pyran-2-ylmethyl ester], with 3.29 µM.
